Tested on: U251MG glioma cells
Assay: In vivo efficacy in athymic nude mice with subcutaneous U251MG glioma
Details: tumor-bearing mice; TMZ alone orally 64 mg/kg/day for 4 days, no T cells (Group III)
Description: The in vivo efficacy of the IL13E13K.R109K-2A-P140KMGMT construct was tested in mice using the viral particles generated as described in Example 2. Fifty athymic nude mice were injected subcutaneously (left flank) with U251MG glioma cells (40 mice; Groups I-IV) or PBS (10 mice). Four days after glioma implantation, 3 groups of mice (Groups I, II and III, 10 mice/group) were treated orally with TMZ (64 mg/kg/day by oral gavage) for 4 days. On the 5th day after glioma implantation, the 3 groups of mice that had been treated orally with TMZ were treated as follows: Group I: an intra-tumoral injection of the IL13E13K.R109KCAR-2A-P140KMGMT construct (TMZ-resistant); Group II: the IL13 IL13E13K.R109K construct with no MGMT (TMZ sensitive); Group III: treatment with PBS only (no injection of T cells). Group IV received no T cells or TMZ treatment. The mice were monitored for visual tumor growth, behavioral changes, and morbidity until day 90 after injection of the T cells at which time the mice were sacrificed as required by IACUC restrictions.

Structure (SMILES): Cn1nnc2c(C(N)=O)ncn2c1=O [TMZ, temozolomide]
- median survival time: 36 days
- survival rate: 20%

Source: patent US9650428B2, “Methods and compositions for treating cancer” (Roger Williams Hospital, priority 2014, dated 2017)
